Like-named read-outs stand apart in the source and are kept apart here.
Key:
BY4741 wild type strain = details: for cell growth (OD600): 24 h
Protocol: The Tolerance Factor (TF) is defined as the ratio of the OD600 of cells grown with the heavy alcohol in the medium after 24 h, divided by the OD600 of cells grown in the absence of the heavy alcohol for the same amount of time.
A first example is for the identification of the LC50 (lethal concentration for 50% of cells) of isobutanol for the BY4741 wild type strain of S. cerevisiae, the strain from which a gene deletion library was developed (Giaever et al., 2002; Winzeler et al., 1999). […] The cell growth of BY4741 in synthetic complete (SC) liquid medium containing concentrations of isobutanol ranging from 0.0% to 1.8% (v/v) was monitored by measuring the optical density at 600 nm (OD600) after 24-h cultivation.
(§1) Utilizing the LC50 results, one can screen a gene deletion library (here, the BY4741 library [Giaever et al., 2002; Winzeler et al., 1999]) for changes in cell growth in liquid SC medium containing the heavy alcohol at an amount that is 0.1% or 0.2% (v/v) less than the LC50. Here, 1.4% (v/v) isobutanol was used. […] To quantify these phenotypes, a tolerance factor (TF) was defined as the ratio of the OD600 of cells grown with isobutanol in the medium after 24 h, divided by the OD600 of cells grown in the absence of isobutanol for the same amount of time. Thus, one can classify deletion strains as having increased sensitivity or tolerance to isobutanol based on the comparison of their TF values to that of the wild type strain in, e.g., 1.4% isobutanol measured during the screen. […] To assess the specificity of changes in tolerance to isobutanol, the growth of these selected strains in media containing ethanol can also be measured: 8% for sensitive strains or 9% for tolerant strains.
For most screens and analyses of alcohol tolerance, wild type and deletion strains can be cultured in synthetic complete (SC) medium made inhouse (see Table 1) at 30° C., and 2% glucose. Strains overexpressing PPP genes can be cultured in SC medium lacking uracil (SC-Ura) made inhouse.

gcn3Δ strain = assay type: cell-based, S. cerevisiae
Protocol: as §1
(§2) The six hypertolerant strains were examined in liquid medium containing heavy alcohols. In this example, the liquid medium contained 1.5% or 1.6% isobutanol, or 8% ethanol.

gnd1Δ strain = assay type: cell-based, S. cerevisiae; details: for sensitivity / cell growth in presence of alcohol compared to wild type: FIG. 5, various alcohols
Protocol: (§3) Growth of 19 hypersensitive strains was measured in liquid SC medium containing 0.6%, 1.0%, or 1.4% isobutanol, or 8% ethanol. These growth experiments were initiated at an OD600 of 0.1, unlike in previous screens, which started with much smaller inoculums (from a 96-pin replicator).
(§4) The sensitivity of gnd1Δ and zwf1Δ strains to other alcohols including methanol, 1-propanol, 1-butanol, 2-butanol, tert-butanol, 1-pentanol, 2-methyl-1-butanol, isopentanol, and 1-hexanol was explored.

zwf1Δ strain = assay type: cell-based, S. cerevisiae; details: for sensitivity / cell growth in presence of alcohol compared to wild type: FIG. 5, various alcohols
Protocol: as §3, §4

nha1Δ strain = details: 8% ethanol
Protocol: as §3, §4

gln3Δ strain [1] = assay type: cell-based, S. cerevisiae; details: for tolerance compared to wild type strain: liquid medium
Description: as §2
Tolerance of the gln3Δ strain to other alcohols was explored by measuring its growth in liquid medium containing methanol, 1-propanol, 1-butanol, 2-butanol, tert-butanol, 1-pentanol, 2-methyl-1-butanol, isopentanol, or 1-hexanol.

avt3Δ strain = assay type: cell-based, S. cerevisiae; details: FIG. 6
Description: as §2

gnp1Δ strain = assay type: cell-based, S. cerevisiae; details: FIG. 6
Description: as §2

vps55Δ strain = assay type: cell-based, S. cerevisiae; details: FIG. 6
Description: as §2

ydr391cΔ strain = assay type: cell-based, S. cerevisiae; details: FIG. 6
Description: as §2

yeast = details: cited from earlier work
BY4741 = assay: Serial dilutions spotted onto SC agar plates; assay type: cell-based, S. cerevisiae; details: SC agar containing 2.4% isobutanol
Description: To evaluate isobutanol growth inhibition on solid medium, serial dilutions of BY4741 were spotted onto SC agar plates containing 0.0% to 3.0% isobutanol. […] The higher LC50 determined from agar plates may be the result of higher cell tolerance to isobutanol in solid media; however, it could also reflect the difficulty in accurately preparing solid media with specific isobutanol concentrations due to isobutanol evaporation during the pouring of hot agar.

gcn4Δ strain = assay: Gene deletion library screen, tolerance factor in liquid SC medium; assay type: cell-based, S. cerevisiae; details: 1.4% isobutanol
Description: (§5) Here, 1.4% (v/v) isobutanol was used.

vps34Δ strain = assay: Growth of hypersensitive strains in liquid SC medium; assay type: cell-based, S. cerevisiae; details: 0.6% isobutanol, initial OD600 0.1
pep12Δ strain = assay: as above; assay type: cell-based, S. cerevisiae; details: 0.6% isobutanol, initial OD600 0.1
gln3Δ strain [2] = assay: Growth on SC agar medium; assay type: cell-based, S. cerevisiae; details: 2.7% isobutanol
Description: The gln3Δ strain can grow on SC agar medium containing 2.7% isobutanol.

trp2Δ strain = assay: Gene deletion library screen for isobutanol sensitivity; assay type: cell-based, S. cerevisiae; details: second screen, 0.6% and 1.2% isobutanol
Description: as §5
(§6) Out of the 164 sensitive strains, the 46 strains that continue to display increased sensitivity to isobutanol at lower concentrations (TF <0.5 in 0.6% isobutanol or TF <0.1 in 1.2% isobutanol) can be categorized as hypersensitive. These strains are highlighted in gray in FIGS. 2A-2C. Among the 36 strains with increased tolerance, 6 continue to display increased tolerance (TF >0.4) in 1.5% isobutanol, which we categorize as hypertolerant (FIG. 3).
(§7) Next, a Gene Ontology (GO) enrichment analysis of genes deleted in the 164 most sensitive and 36 most tolerant strains can be performed. […] In fact, five strains harboring deletions in the TRP gene family, encoding enzymes in tryptophan biosynthesis, show increased isobutanol sensitivity (with trp2Δ, trp3Δ, and trp5Δ being hypersensitive strains). One can examine the increased sensitivity to isobutanol caused by TRP1 deletion because it is an auxotrophic marker in commonly used strains, such as CEN.PK- and SEY6210-derived strains. […] Furthermore, after repairing the TRP1 allele in CEN.PK2-1C and SEY6210, wild-type (BY4741) levels of isobutanol tolerance are recovered.

trp3Δ strain = assay: as above; assay type: cell-based, S. cerevisiae; details: second screen, 0.6% and 1.2% isobutanol
Description: as §5, §6, §7

trp5Δ strain = assay: as above; assay type: cell-based, S. cerevisiae; details: second screen, 0.6% and 1.2% isobutanol
Description: as §5, §6, §7

[3] = 0.6% isobutanol, initial OD600 0.1

CCO [Ethanol, ethanol]
Tolerance Factor (BY4741 wild type strain; 8.0% ethanol): 0.31
sensitivity compared to wild type strain (gcn3Δ strain; 8% ethanol, FIG. 6): at least as sensitive
sensitivity compared to wild type strain (gnd1Δ strain; 8% ethanol): no more sensitive
sensitivity / cell growth in presence of alcohol compared to wild type (gnd1Δ strain): neither strain demonstrates significantly increased sensitivity
sensitivity compared to wild type strain (zwf1Δ strain; 8% ethanol): no more sensitive
sensitivity / cell growth in presence of alcohol compared to wild type (zwf1Δ strain): neither strain demonstrates significantly increased sensitivity
sensitivity compared to wild type strain (nha1Δ strain): no more sensitive
sensitivity compared to wild type strain (gln3Δ strain [1]; 8% ethanol, FIG. 6): at least as sensitive
tolerance compared to wild type strain (gln3Δ strain [1]; FIG. 7): does not statistically increase tolerance
sensitivity compared to wild type strain (avt3Δ strain; 8% ethanol): at least as sensitive
sensitivity compared to wild type strain (gnp1Δ strain; 8% ethanol): at least as sensitive
sensitivity compared to wild type strain (vps55Δ strain; 8% ethanol): at least as sensitive
sensitivity compared to wild type strain (ydr391cΔ strain; 8% ethanol): at least as sensitive
ethanol concentration endured (yeast; S. cerevisiae): ≤ 18 % (v/v)

CCCCCO [Example 1-pentanol, 1-pentanol]
tolerance compared to wild type strain (gln3Δ strain [1]; FIG. 7): does not statistically increase tolerance

CO [methanol]
sensitivity / cell growth in presence of alcohol compared to wild type (gnd1Δ strain): neither strain demonstrates significantly increased sensitivity
sensitivity / cell growth in presence of alcohol compared to wild type (zwf1Δ strain): neither strain demonstrates significantly increased sensitivity
tolerance compared to wild type strain (gln3Δ strain [1]; FIG. 7): does not statistically increase tolerance

CCCCO [Example 1-butanol, 1-butanol]
tolerance compared to wild type strain (gln3Δ strain [1]; FIG. 7): does not statistically increase tolerance

CC(C)CO [Isobutanol, 2-methyl-1-propanol]
Tolerance Factor (BY4741 wild type strain; 0.6% isobutanol): 0.92
Tolerance Factor (BY4741 wild type strain; 1.2% isobutanol): 0.72
Tolerance Factor (BY4741 wild type strain; 1.4% isobutanol): 0.38
Tolerance Factor (BY4741 wild type strain; 1.5% isobutanol): 0.19
Tolerance Factor (BY4741 wild type strain; 1.6% isobutanol): 0.11
LC50 (lethal concentration for 50% of cells) (BY4741 wild type strain; SC liquid medium, OD600 after 24-h cultivation): ~1.5 % (v/v)
cell growth (OD600) (BY4741 wild type strain; isobutanol 1.4% and 1.5%): moderate inhibition
cell growth (OD600) (BY4741 wild type strain; isobutanol concentrations above 1.6%): significantly inhibited
cell growth (OD600) (BY4741 wild type strain; isobutanol concentrations below 1.3%): marginally affected
cell growth on agar plates (BY4741): still observable but noticeably inhibited
Tolerance Factor (gcn4Δ strain): 0.86
Tolerance Factor (gcn3Δ strain; 1.4% isobutanol): 0.98
growth compared to wild type (gcn3Δ strain; 1.5% isobutanol, FIG. 6): grow better than the wild type
tolerance compared to wild type (gcn3Δ strain; 1.6% isobutanol, FIG. 6): enhanced tolerance
Tolerance Factor (gnd1Δ strain; [3]): less than 0.3
Tolerance Factor (zwf1Δ strain; [3]): less than 0.3
Tolerance Factor (vps34Δ strain): less than 0.3
Tolerance Factor (pep12Δ strain): less than 0.3
growth compared to wild type (gln3Δ strain [1]; 1.5% isobutanol, FIG. 6): grow better than the wild type
tolerance compared to wild type (gln3Δ strain [1]; 1.6% isobutanol, FIG. 6): enhanced tolerance
increase in isobutanol tolerance compared to wild type (gln3Δ strain [1]; FIG. 7): 4.04 fold
tolerance compared to wild type strain (gln3Δ strain [1]; FIG. 7): dramatically enhanced tolerance
growth on SC agar medium (gln3Δ strain [2]): can grow
growth compared to wild type (avt3Δ strain; 1.5% isobutanol): grow better than the wild type
growth compared to wild type (gnp1Δ strain; 1.5% isobutanol): grow better than the wild type
tolerance compared to wild type (gnp1Δ strain; 1.6% isobutanol): enhanced tolerance
growth compared to wild type (vps55Δ strain; 1.5% isobutanol): grow better than the wild type
tolerance compared to wild type (vps55Δ strain; 1.6% isobutanol): enhanced tolerance
growth compared to wild type (ydr391cΔ strain; 1.5% isobutanol): grow better than the wild type
isobutanol sensitivity class (trp2Δ strain): hypersensitive (TF <0.5 in 0.6% isobutanol or TF <0.1 in 1.2% isobutanol)
isobutanol sensitivity class (trp3Δ strain): hypersensitive (TF <0.5 in 0.6% isobutanol or TF <0.1 in 1.2% isobutanol)
isobutanol sensitivity class (trp5Δ strain): hypersensitive (TF <0.5 in 0.6% isobutanol or TF <0.1 in 1.2% isobutanol)
toxicity for yeast relative to ethanol (yeast): 10 times

CCC(C)CO (stereo not shown) [2-methyl-1-butanol]
OD600 relative to wild type strain (gln3Δ strain [1]; 0.55% 2-methyl-1-butanol, FIG. 7): 11.4 fold
tolerance compared to wild type strain (gln3Δ strain [1]; FIG. 7): dramatically enhanced tolerance

CCC(C)O (stereo not shown) [Example 2-butanol, 2-butanol]
tolerance compared to wild type strain (gln3Δ strain [1]; FIG. 7): smaller, but statistically significant, increase in tolerance

CCCCCCO [Example 1-hexanol, 1-hexanol]
tolerance compared to wild type strain (gln3Δ strain [1]; FIG. 7): does not statistically increase tolerance

CC(C)(C)O [tert-butanol]
tolerance compared to wild type strain (gln3Δ strain [1]; FIG. 7): dramatically enhanced tolerance

CC(C)CCO [isopentanol, 3-methyl-1-butanol]
tolerance compared to wild type strain (gln3Δ strain [1]; FIG. 7): dramatically enhanced tolerance

CCCO [Example 1-propanol, 1-propanol]
sensitivity / cell growth in presence of alcohol compared to wild type (gnd1Δ strain): neither strain demonstrates significantly increased sensitivity
sensitivity / cell growth in presence of alcohol compared to wild type (zwf1Δ strain): neither strain demonstrates significantly increased sensitivity
tolerance compared to wild type strain (gln3Δ strain [1]; FIG. 7): does not statistically increase tolerance
